Data: patent US11066414B2, “Cot modulators and methods of use thereof” (Gilead Sciences, Inc., priority 2015, dated 2021)
Read-outs that look alike come from different tables or passages of the source.

Tests used:
[1] = target: Human Cot (Homo sapiens (Human), UniProt P41279); assay: High Throughput Cot Biochemical Assay
[2] = system: TNFα; assay: Cot Monocyte TNFα Cell Based Assay
[3] = IC50 HTRF, Cot HTRF (TR-FRET) biochemical assay
[4] = Homo sapiens, Monocyte, read-out: EC50 TNF, LPS-stimulated human monocytes, TNFα
[5] = IC50 HTRF, Cot HTRF (TR-FRET KinEASE) biochemical assay, 400 μM ATP
[6] = Homo sapiens, Monocyte, read-out: EC50 TNF, LPS-stimulated human monocytes, TNFα TR-FRET
[7] = read-out: IC50 HTRF, Cot HTRF (TR-FRET) biochemical assay
[8] = read-out: EC50 TNF, LPS-stimulated human monocytes, TNFα

Sequence of Human Cot (P41279 30-397): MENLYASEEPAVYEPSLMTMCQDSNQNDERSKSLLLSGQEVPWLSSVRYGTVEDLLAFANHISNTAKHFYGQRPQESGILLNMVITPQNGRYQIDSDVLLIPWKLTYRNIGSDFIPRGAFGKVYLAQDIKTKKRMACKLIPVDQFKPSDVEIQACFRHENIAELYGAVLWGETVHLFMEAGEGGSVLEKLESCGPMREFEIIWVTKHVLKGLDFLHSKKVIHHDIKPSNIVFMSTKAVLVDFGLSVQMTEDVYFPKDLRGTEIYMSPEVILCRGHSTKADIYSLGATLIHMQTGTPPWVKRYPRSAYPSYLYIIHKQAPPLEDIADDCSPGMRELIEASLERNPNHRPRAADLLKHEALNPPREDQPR

| SMILES | IC50 [1, 3] [nM] | EC50 [2, 4] [nM] | further results |
| --- | --- | --- | --- |
| CC(C)(C)CNc1c(C#N)cnc2c(Cl)cc(N[C@H](c3cn(C4(C(F)(F)F)CC4)nn3)c3cccc4ncccc34)cc12 [Example 461, (S)-8-chloro-4-(neopentylamino)-6-((quinolin-5-yl(1-(1-(trifluoromethyl)-cyclopropyl)-1H-1,2,3-triazol-4-yl)methyl)amino)quinoline-3-carbonitrile] | 17 | 154 | – |
| CC(C)(C)CNc1c(C#N)cnc2c(Cl)cc(N[C@@H](c3ccc4nccn4c3)c3cn(C4(C(F)(F)F)CC4)nn3)cc12 [Example 935, (S)-8-chloro-6-((imidazo[1,2-a]pyridin-6-yl(1-(1-(trifluoromethyl)cyclopropyl)-1H-1,2,3-triazol-4-yl)methyl)amino)-4-(neopentylamino)quinoline-3-carbonitrile] | – | – | IC50 [1, 5]: 24 nM; EC50 [2, 6]: 424 nM |
| Cc1nc(F)ccc1[C@H](Nc1cc(Cl)c2ncc(C#N)c(NCC(C)(C)S(C)(=O)=O)c2c1)c1cn(C2(C(F)(F)F)CC2)nn1 [Example 722, (S)-8-chloro-6-(((6-fluoro-2-methylpyridin-3-yl)(1-(1-(trifluoromethyl)-cyclopropyl)-1H-1,2,3-triazol-4-yl)methyl)amino) -4-((2-methyl-2-(methylsulfonyl)propyl)amino)-quinoline-3-carbonitrile] | 43 | 403 | – |
| [2H][C@](Nc1cc(C#N)c2ncc(C#N)c(N[C@H](CC)c3ccccc3)c2c1)(c1ccc(F)nc1)c1cn(C2CC2)nn1 [Example 117, 6-(((S)-(-cyclopropyl-1H-1,2,3-triazol-4-yl)(6-fluoropyridin-3-yl)methyl-d)amino)-4-(((R)-1-phenylpropyl)amino)quinoline-3,8-dicarbonitrile] | 3 | 94 | – |
| N#Cc1cnc2c(Cl)cc(N[C@H](c3cn(C4CCNCC4)nn3)c3cncs3)cc2c1Nc1ccc(F)c(Cl)c1 [Example 375, (R)-8-chloro-4-((3-chloro-4-fluorophenyl)amino)-6-(((1-(piperidin-4-yl)-1H-1,2,3-triazol-4-yl)(thiazol-5-yl)methyl)amino)quinoline-3-carbonitrile] | 4 | 1510 | – |
| CC(C)(C)N1CCC(n2cc([C@@H](Nc3cc(Cl)c4ncc(C#N)c(Nc5cccc(Cl)c5F)c4c3)c3cccnc3)nn2)CC1 [Example 286] | – | – | IC50 [1, 7]: 4 nM; EC50 [2, 8]: 121 nM |
| Cc1nc([C@H](Nc2cc(Cl)c3ncc(C#N)c(Nc4ccc(F)c(Cl)c4)c3c2)c2cn(C3CCN(C(C)(C)C)CC3)nn2)c(C)o1 [Example 262, (S)-6-(((1-(1-(tert-butyl)piperidin-4-yl)-1H-1,2,3-triazol-4-yl)(2,5-dimethyloxazol-4-yl)methyl)amino)-8-chloro-4-((3-chloro-4-fluorophenyl)amino)quinoline-3-carbonitrile] | 11 | 130 | – |
| Cn1ccc2c([C@H](Nc3cc(Cl)c4ncc(C#N)c(NCC(C)(C)C(F)(F)F)c4c3)c3cn(C4(C(F)F)CC4)nn3)cccc2c1=O [Example 724, (S)-8-chloro-6-(((1-(1-(difluoromethyl)cyclopropyl)-1H-1,2,3-triazol-4-yl)(2-methyl-1-oxo-1,2-dihydroisoquinolin-5-yl)methyl)amino)-4-((3,3,3-trifluoro-2,2-dimethylpropyl)amino)quinoline-3-carbonitrile] | 3 | 44 | – |
| [2H][C@](Nc1cc(Cl)c2ncc(C#N)c(NCC(C)(C)C)c2c1)(c1ccc(F)nc1)c1cn(CC(=O)NS(C)(=O)=O)nn1 [Example 425, (S)-2-(4-(((8-chloro-3-cyano-4-(neopentylamino)quinolin-6-yl)amino)(6-fluoropyridin-3-yl)methyl-d)-1H-1,2,3-triazol-1-yl)-N-(methyl-sulfonyl)acetamide] | 7 | 1000 | – |
| Cc1nc(F)ccc1[C@@H](Nc1cc(Cl)c2ncc(C#N)c(N[C@H](CCC#N)c3ccccc3)c2c1)c1cn(C2CC2)nn1 [Example 438, 8-chloro-4-(((R)-3-cyano-1-phenyl-propyl)amino)-6-(((R)-(1-cyclopropyl-1H-1,2,3-triazol-4-yl)(6-fluoro-2-methylpyridin-3-yl)methyl)amino)-quinoline-3-carbonitrile] | 473 | 1000 | – |
| Cn1ccc2c([C@H](Nc3cc(Cl)c4ncc(C#N)c(NCC(C)(C)C)c4c3)c3cn(C(C)(C)C)nn3)cccc2c1=O [Example 747, (S)-6-(((1-(tert-butyl)-1H-1,2,3-triazol-4-yl)(2-methyl-1-oxo-1,2-dihydroisoquinolin-5-yl)methyl)amino)-8-chloro-4-(neopentylamino)quinoline-3-carbonitrile] | 4 | 36 | – |
| Cc1nc(F)ccc1[C@H](Nc1cc(Cl)c2ncc(C#N)c(NCC(C)(C)C(F)(F)F)c2c1)c1nnn(C23CC(C2)C3)c1F [Example 956, (S)-6-(((1-(bicyclo[1.1.1]pentan-1-yl)-5-fluoro-1H-1,2,3-triazol-4-yl)(6-fluoro-2-methylpyridin-3-yl)methyl)amino)-8-chloro-4-((3,3,3-trifluoro-2,2-dimethylpropyl)amino)quinoline-3-carbonitrile] | – | – | IC50 [1, 5]: 7 nM; EC50 [2, 6]: 44 nM |
| Cc1ncsc1[C@H](Nc1cc(Cl)c2ncc(C#N)c(Nc3ccc(Cl)c(Cl)c3F)c2c1)c1c[nH]nn1 [Example 234, (R)-8-chloro-4-((3,4-dichloro-2-fluorophenyl)amino)-6-(((4-methylthiazol-5-yl)(1H-1,2,3-triazol-4-yl)methyl)amino)quinoline-3-carbonitrile] | 21 | 504 | – |
| CC(C)(C)CNc1c(C#N)cnc2c(C#N)cc(N[C@@H](c3cn(C4CC4)nn3)c3cccc4ncsc34)cc12 [Example 410, (R)-6-((benzo[d]thiazol-7-yl(1-cyclopropyl-1H-1,2,3-triazol-4-yl)methyl)amino)-4-(neopentyl-amino)quinoline-3,8-dicarbonitrile] | 113 | 1000 | – |
| CC(C)n1cc([C@@H](Nc2cc(Cl)c3ncc(C#N)c(N[C@@H](CCO)c4ccccc4)c3c2)c2cccnc2)nn1 [Example 184, 8-chloro-4-(((S)-3-hydroxy-1-phenylpropyl)amino)-6-(((S)-(1-isopropyl-1H-1,2,3-triazol-4-yl)(pyridin-3-l)methyl)amino)-quinoline-3-carbonitrile] | – | – | IC50 [1, 7]: 8 nM; EC50 [2, 8]: 387 nM |
| CC[C@@H](Nc1c(C#N)cnc2c(Cl)cc(N[C@@H](c3cccnc3)c3cn(CC#N)nn3)cc12)c1ccccc1 [Example 175, 8-chloro-6-(((S)-(1-(cyanomethyl)-1H-1,2,3-triazol-4-yl)(pyridin-3-yl)methyl)amino)-4-(((R)-1-phenylpropyl)amino)quinoline-3-carbonitrile] | 3 | 73 | – |
| CC(C)(C)CNc1c(C#N)cnc2c(Cl)cc(N[C@H](c3cn(C(CF)CF)nn3)c3cccc4ncccc34)cc12 [Example 804, (S)-8-chloro-6-(((1-(1,3-difluoropropan-2-yl)-1H-1,2,3-triazol-4-yl)(quinolin-5-yl)methyl)amino)-4-(neopentylamino)quinoline-3-carbonitrile] | – | – | IC50 [1, 5]: 9 nM; EC50 [2, 6]: 137 nM |
| Cn1ccc2c([C@H](Nc3cc(Cl)c4ncc(C#N)c(NCC(C)(C)CO)c4c3)c3cn(C45CC(C4)C5)nn3)cccc2c1=O [Example 768, (S)-6-(((1-(bicyclo[1.1.1]pentan-1-yl)-1H-1,2,3-triazol-4-yl)(2-methyl-1-oxo-1,2-dihydroisoquinolin-5-yl)methyl)amino)-8-chloro-4-((3-hydroxy-2,2-dimethylpropyl)amino)quinoline-3-carbonitrile] | 6 | 86 | – |
| COc1ccc([C@H](Nc2cc(Cl)c3ncc(C#N)c(NCC(C)(C)C)c3c2)c2cn(C3(C(F)F)CC3)nn2)c(C)n1 [Example 729, (S)-8-chloro-6-(((1-(1-(difluoromethyl)cyclopropyl)-1H-1,2,3-triazol-4-yl)(6-methoxy-2-methylpyridin-3-yl)methyl)amino)-4-(neopentylamino)quinoline-3-carbonitrile] | 5 | 108 | – |
| N#CCCC(Nc1c(C#N)cnc2c(Cl)cc(N[C@@H](c3cn(C4CC4)nn3)c3csc4c3CCN(C3COC3)C4)cc12)c1ccccc1 (stereo partly drawn) [Example 83, 8-chloro-4-((3-cyano-1-phenylpropyl)amino)-6-(((RH 1-cyclopropyl-1H-1,2,3-triazol-4-yl)(6-(oxetan-3-yl)-4,5,6,7-tetrahydrothieno[2,3-c]pyridin-3-yl)methyl)amino)-quinoline-3-carbonitrile] | – | – | IC50 [1, 7]: 942 nM; EC50 [2, 8]: 1000 nM |
| Cc1cncc([C@H](Nc2cc(Cl)c3ncc(C#N)c(Nc4ccc(F)c(Cl)c4)c3c2)c2cn(C3CCN(C(C)(C)C)CC3)nn2)c1 [Example 250, (S)-6-(((1-(1-(tert-butyl)piperidin-4-yl)-1H-1,2,3-triazol-4-yl)(5-methylpyridin-3-yl)methyl)amino)-8-chloro-4-((3-chloro-4-fluorophenyl)amino)quinoline-3-carbonitrile] | 5 | 127 | – |
| CC[C@@H](Nc1c(C#N)cnc2c(F)cc(N[C@@H](c3ccc(F)nc3)c3cn(C4CC4)nn3)cc12)c1ccccc1 [Example 120, 6-(((S)-(-cyclopropyl-1H-1,2,3-triazol-4-yl)(6-fluoropyridin-3-yl)methyl-d)amino)-8-fluoro-4-(((R)-1-phenylpropyl)amino)quinolme-3-carbonitrile] | – | – | IC50 [1, 7]: 5 nM; EC50 [2, 8]: 137 nM |
| CC(C)(C)CNc1c(C#N)cnc2c(C#N)cc(N[C@H](c3cn(C4(CF)CC4)nn3)c3cccc4cnccc34)cc12 [Example 569] | – | – | IC50 [1, 7]: 7 nM; EC50 [2, 8]: 171 nM |
| CC(C)(C)CNc1c(C#N)cnc2c(C#N)cc(N[C@H](c3cn(C4(C(F)F)CC4)nn3)c3ccc(F)c4ncccc34)cc12 [Example 671] | – | – | IC50 [1, 7]: 2 nM; EC50 [2, 8]: 32 nM |
